In US20220023269A1, “Methods Of Treating Diabetes In Severe Insulin-Resistant Diabetic Subjects” (Balticgruppen Bio AB, priority 2018, published 2022):

Assays:
hIAPPtg mice = assay: Diet switch in hIAPPtg mice: HFD 9 w then test material-HFD (0.8 mg/g) 7 w; assay type: in vivo
Procedure: Food intake was measured weekly by giving each cage 200 g pellet. After one week, the amount of pellets consumed were calculated and adjusted according to the number of animals/cage. Body weight was measured weekly. Body composition was assessed using EchoMRI.
The potent effect of the test material on established diabetes and obesity in hIAPPtg mice on HFD formulated with 2 mg/g test material leaves open the possibility that the beneficial metabolic effects (FIG. 4, F-H) observed in these mice are secondary to the effects on weight and body fat. To address this issue, we therefore performed diet switch experiments on hIAPPtg mice using a lower test material-HFD concentration, where mice were fed HFD for 9 w and then either continued on HFD or switched to test material-HFD (0.8 mg/g) for 7 w.

[1] = test system: T2D patients on Metformin; assay: Phase IIa clinical trial (TELLUS), 28 days; assay type: in vivo, human; settings: for T2*-grad / Δ-T2*: group-averaged curve fitting
Procedure: An exploratory proof-of-concept randomised, parallel-group, double-blinded, placebo-controlled phase IIa 28-day study (TELLUS) of the first-in-class AMPK activator (the test material; 1,000 mg/day) was conducted in 65 T2D patients on Metformin for months, aiming at further exploring safety of test material and the effect of test material on FPG at a single-dose level.
Main inclusion criteria: Male and female patients, 18-80 years of age, with uncomplicated T2D, on stable T2D treatment with Metformin monotherapy for 3 months. HbA1c of ≥6.5% and 9.0%, and not FPG at day 1, was selected as the main inclusion criterion.
Main exclusion criteria: History of myocardial infarction (MI), unstable angina, stroke or transient ischemic attack (TIA). Congestive heart failure defined as New York Heart Association (NYHA) class III-IV. Any clinically significant abnormalities in physical examination, ECG or clinical chemistry results, as judged by the Investigator.
A good-manufacturing practice (GMP) batch of 5 kg test material was manufactured by Anthem BioSciences Pvt.Ltd, Bangalore, Karnataka, India. The suspension is composed of test material 20 mg/ml in 2% methylcellulose in phosphate buffer. A 2% methylcellulose suspension that colour matched the active product was used as placebo. The test material and placebo suspensions were manufactured, packaged and labelled by Recipharm Pharmaceutical Development AB, Solna, Sweden.
Sixty-five (65) patients were randomised (1:1) to treatment with either the material or placebo. A screening visit (Visit 1) was performed within 3 weeks before randomisation and the start of IMP administration. Patients were randomised on Day 1 (Visit 2) and allocated to 28 days' treatment with either test material or placebo (1:1). Study visits to the clinic were performed 7, 14, 21, 28, 29 and 40 days (Visits 3 to 8) following randomisation and start of treatment. The patients were confined to the research clinic from the evening before Day 1 and Day 28 (Day −1 and Day 27, respectively) to ensure fasting conditions before samples for analyses of FPG were collected. Magnetic Resonance Imaging (MRI) scans after screening but before day 1 and after end of treatment were performed at the University Hospital in Uppsala, Sweden, according to standardised methods. Antaros Medical in Uppsala performed the data analysis. A clinical read of the acquired scans was performed by a radiologist at Antaros Medical. If clinically significant findings were noted by the radiologist, the Investigator was notified of the finding. The Investigator was to evaluate and handle the finding as per standard medical/clinical judgment.
Any findings were reported as either baseline events or adverse events, if they started, or worsened after administration of the first dose of IMP. The method used for assessing microvascular function in the calf muscle, (a proxy for oxygenation), include a dynamic MRI investigation of T2* determination before during and after reactive hyperemia (Reference 4). Sixty five (65) patients were randomised, 32 patients in the placebo group and 33 in the test material group, and 59 patients completed the study (28 and 31 in the two groups, respectively). HbA1c of 6.5% and 9.0%, and not FPG at day 1, was used as the inclusion criterion since MRI examinations had to be performed after screen but before day 1.

Wistar rats = assay: 6 months oral gavage in Wistar rats; assay type: in vivo; settings: 100, 300 and 600 mg/kg/day gavage, RD, vs vehicle
Procedure: 8-10 weeks old Wistar male and female rats were treated by oral gavage with vehicle or test material at 100, 300 or 600 mg/kg/day for 6 months.

[2] = subjects with long TTP at baseline

With O=C(Nc1nc(=O)n(Cc2ccc(Cl)cc2)s1)c1ccc(Cl)cc1 [test material, 4-chloro-N-[2-[(4-chlorophenyl)methyl]-3-oxo-1,2,4-thiadiazol-5-yl]benzamide] the body fat (hIAPPtg mice; 0.8 mg/g for 7 w) was “did not provoke body weight or body fat loss”, the body weight (hIAPPtg mice; 0.8 mg/g for 7 w) was “did not provoke body weight or body fat loss” and the HOMA-IR (hIAPPtg mice; 0.8 mg/g, 6 w after the switch) was “significantly reduced”. The glucose levels (hIAPPtg mice; 0.8 mg/g, 6 w after the switch) was “significantly reduced”, the insulin levels (hIAPPtg mice; 0.8 mg/g, 6 w after the switch) was “significantly reduced” and the “mean absolute reduction in diastolic blood pressure, day 28 vs day 1” value ([1]; 1,000 mg/day) was −3.8 mmHg. The “mean absolute reduction in systolic blood pressure, day 28 vs day 1” value ([1]; 1,000 mg/day) was −5.8 mmHg, the tolerability ([1]; 1,000 mg/day, 28 days) was “well tolerated” and the “HOMA-IR at day 28 compared with day 1” value ([1]; 1,000 mg/day, Wilcoxon test within group) was “statistically significant both absolute (P=0.0097) and relative (P=0.017) reduction”. For the same compound, the “change in mean heart rate at day 28 compared with baseline” value ([1]; 1,000 mg/day, not significant) was −1.6 bpm, the “mean absolute reduction in FPG at day 28 compared with day 1” value ([1]; 1,000 mg/day, post hoc, FPG >7 to <13.3 mmol/l at day 1) was -0.60 mM and the “T2*-grad” value ([1]; MR1 (screening/baseline)) was 0.528 min⁻¹. For the same compound, the “Δ-T2*” value ([1]; MR1 (screening/baseline)) was 0.072, the “T2*-grad” value ([1]; MR2 (day 27-29)) was 0.665 min⁻¹ and the “Δ-T2*” value ([1]; MR2 (day 27-29)) was 0.081. For the same compound, the “plasma t1/2” value ([1]; T2D patients) was “long”, the “time to plasma steady-state concentration” value ([1]; T2D patients) was at least 14 days and the “T2*-gradient at day 28 compared with baseline” value ([1]; individual curve fitting, Wilcoxon within group) was “significant relative increase”. The “Δ−T2* (hyperemic perfusion) at day 28 compared with baseline” value ([1]; individual curve fitting, vs placebo, 2-way ANOVA) was “statistically significant increase”, the “time-to-peak (TTP), MRI1 vs MRI2” value [1, 2] was “significant shortening of TTP” and the “Δ−T2*, MRI1 vs MRI2” value [1, 2] was “increase”. The heart/brain weight (Wistar rats) was “did not show increased heart/brain weight”.
